{
  "source": "patent US20220275458A1",
  "about": "“PREDICTION OF CANCER THERAPY EFFICACY” (UNIVERSITY OF MASSACHUSETTS, priority 2019, published 2022)",
  "key": {"[1]": {"tested_on": "TLS cancer vs non-TLS cancer or non-cancer cells", "test": "Combined assay: EdU replication and ssDNA gaps (TLS specificity)", "format": "cell-based, human", "conditions": "U2OS cell lines; HU plus ATR inhibitor", "quoted_text": "A combination assay was performed in a high-throughput manner using 384-well plates. This assay served as a rapid and efficient method to determine the anti-TLS activity of the lead compounds and novel analogues. […] Specifically, the assay identifies compounds that cause TLS cells, but not non-TLS cells, to lose replication (green) and gain ssDNA gaps (red). […] Colors can be identified using a high content and high throughput imaging camera. […] Moreover, red and green fluorescent readouts are readable/quantifiable from full well images at 20×. Several positive and negative controls that may be employed in parallel with the screen to induce gaps or suppress gaps. In particular, under these assay conditions replication with gaps are induced when ATR is inhibited.\nA combined assay can be performed to first analyze the ability of these TLSi's to inhibit global replication with concomitant induction of ssDNA in TLS cancer vs non-TLS cancer or non-cancer cells. Second, a colony formation assays in each of these models to determine whether the TLSi's selectively reduce colony formation in TLS cancer cells.\nImmunofluorescence was performed as described previously^27. Cells were grown on coverslips in 10 μM BrdU for 48 h before the treatment with drugs. Cells were then treated with the aforementioned drugs for 2 h. […]"}, "BR5-R1 cells": {"tested_on": "BR5-R1 cells", "test": "Cell survival assays for T2, BR5 and BR5-R1 cells", "format": "cell-based, mouse", "conditions": "BR5-R1 PARPi-resistant cells; VE-821 1 μM co-incubated with olaparib", "description": "To determine whether gap suppression mechanisms occur in models of de novo PARPi resistance, cell lines were analyzed that were initially sensitive to PARPi and then had gained PARPi resistance while propagated in tissue culture^41. BRCA1-deficient mouse ovarian tumor cell line, BR5, was utilized and its derived PARPi-resistant cell line, BR5-R1^41. PARPi sensitivity of BR5 was confirmed as compared to BR5-R1 and BRCA1 proficient T2 cells. See, FIG. 41A. […] See, FIG. 41B. […] See, FIGS. 41B and 41C. Thus, BR5-R1 cells resemble FANCJ deficient cells, in that they both lack PARPi induced-sensitivity, lengthening, or gaps, but remain sensitive to cisplatin. See, FIG. 42A. […] See, FIGS. 41A, 41C and 42A.\n(§1) Cells were seeded onto 96-well plates (500 cells per well, performed in triplicate for each experiment group) and incubated overnight. The next day, cells were treated with increasing doses of drugs indicated in corresponding figures and maintained in complete media for 5 to 7 days. Percentage survival was measured photometrically using a CellTiter-Glo 2.0 viability assay (Promega) in a microplate reader (Beckman Coulter DTX 880 Multimode Detector)."}, "[2]": {"tested_on": "pro-TLS U2OS and HCT15 cells", "test": "Colony formation assay with ATRi or Wee1i alone or with TLSi", "format": "cell-based, human", "conditions": "for clonogenic survival: pro-TLS U2OS cells compared to non-TLS dependent cells; for response in colony formation assay: pro-TLS cancer cell line HCT15", "description": "Currently, there is a major clinical effort to combat cancer by induction of replication stress through inhibition of ATR or the mitotic checkpoint kinase, Wee1 (Bukhari et al., 2019). Given that these drugs induce replication gaps, it was considered that if gaps were the sensitizing lesion, TLS could also interfere with their effectiveness. […] See, FIG. 55A, 5B and FIG. 56A-D; (Bukhari et al., 2019).\nFor colony formation assays either 500 or 1000 cells per well were seeded into 6 well plates and were treated continuously with or without TLSi. Once the colonies had developed, the cells were fixed with 90% methanol and then stained with 0.05% (w/v) crystal violet solution. Plates were then imaged using ChemiDocTM Touch Imaging System (BioRad)."}, "RPE1 cells [3]": {"tested_on": "RPE1 cells", "test": "Cell survival assays in Control, FANCJ K/O and BRCA1 K/O RPE1 cells", "format": "cell-based, human", "conditions": "for sensitivity at therapeutic range: 0.5 uM Olaparib", "description": "as §1"}, "PEO1 and C4-2 cells": {"tested_on": "PEO1 and C4-2 cells", "test": "Cell survival assay, cisplatin, PEO1 and C4-2", "format": "cell-based, human", "description": "Cells were plated at 500 cells per well in the center wells of a 96 well plate in 200 ul volume and allowed to adhere for 36 h. Subsequently, drugs were added in a 100 ul volume and the cells were incubated for 10 days. CellTiter-Glo 2.0 (Promega) was used to quantify cell number by ATP. To prevent evaporation, all blank wells in the 96 well plate were filled with media, and each plate was placed in a humid chamber with PBS."}, "[4]": {"tested_on": "BRCA-RAD51 pathway proficient or deficient cell lines", "test": "PARPi response of model cell systems (Table 4 summary)", "format": "cell-based", "description": "In the above tested model systems, HR or FP sometimes correlate with PARPi resistance whereas ssDNA gap suppression always correlates. Moreover, defects in HR or FP sometimes correlate with PARPi sensitivity whereas gaps always correlate.\nas §1"}, "RPE1 cells [5]": {"tested_on": "RPE1 cells", "test": "DNA fiber assay following olaparib treatment", "format": "cell-based, human", "conditions": "10 μM olaparib, 2 h", "description": "Cells were labeled by sequential incorporation of two different nucleotide analogs, IdU and CldU, into nascent DNA strands for the indicated time and conditions. After nucleotide analogs were incorporated in vivo, the cells were collected, washed, spotted, and lysed on positively charged microscope slides by […] spreading buffer for 8 min at room temperature. For experiments with the ssDNA-specific endonuclease S1, after the CldU pulse, cells were treated with CSK100 buffer for 10 min at room temperature, then incubated with S1 nuclease buffer with or without 20 U/mL S1 nuclease (Invitrogen, 18001-016) for 30 min at 37 C. The cells were then scraped in PBS +0.1% BSA and centrifuged at 7,000 rpm for 5 min at 4 C. Cell pellets were resuspended at […] and lysed with lysis solution on slides. Individual DNA fibers were released and spread by tilting the slides at 45 degrees. After air-drying, fibers were fixed by 3:1 methanol/acetic acid at room temperature for 3 min. After air-drying again, fibers were rehydrated in PBS, denatured with 2.5 M HCl for 30 min, washed with PBS, and blocked with blocking buffer for 1 hr. […] Finally, visualization of green and/or red signals by fluorescence microscopy (Axioplan 2 imaging, Zeiss) provided information about the active replication directionality at the single-molecule level."}, "U2OS cells": {"tested_on": "U2OS cells", "test": "Electron microscopy of reversed replication forks", "format": "cell-based, human", "conditions": "4 mM HU", "description": "To investigate the effect of TLS on the fine replication fork architecture, psoralen cross-linking coupled to reversed fork intermediates were detected with electron microscopy (EM) with or without elevated TLS. Following 4 mM HU treatment, a substantial fraction of reversed replication forks were found in FANCJ^WT and empty vector U2OS cells (˜26% and 23%, respectively). […] See, FIG. 6D.\nFor the EM analysis of replication intermediates, 5-10×10^6 U2OS cells treated with or without 4 mM HU were collected and genomic DNA was cross-linked by two rounds of incubation in 10 μg ml-1 4,5,8-trimethylpsoralen (Sigma-Aldrich) and 3 min of irradiation with 366 nm UV light on a precooled metal block10,26. Cells were lysed and genomic DNA was isolated from the nuclei by proteinase K (Roche) digestion and phenol-chloroform extraction. DNA was purified by isopropanol precipitation, digested with PvuII HF in the proper buffer for 3-5 h at 37° C. and replication intermediates were enriched on a benzoylated naphthoylated DEAE-cellulose (Sigma-Aldrich) column. EM samples were prepared by spreading the DNA on carbon-coated grids in the presence of benzyl-dimethyl-alkylammonium chloride and visualized by platinum rotary shadowing. Images were acquired on a transmission electron microscope (JEOL 1200 EX) with side-mounted camera (AMTXR41 supported by AMT software v601) and analyzed with ImageJ (National Institutes of Health). EM analysis allows distinguishing duplex DNA—which is expected to appear as a 10 nm thick fiber, after the platinum/carbon coating step necessary for EM visualization—from ssDNA, which has a reduced thickness of 5-7 nm. The criteria used for the unequivocal assignment of reversed forks include the presence of a rhomboid structure at the junction itself in order to provide a clear indication that the junction is opened up and that the four-way junction structure is not simply the result of the occasional crossing of two DNA molecules^25. […]"}},
  "data": [
    {"smiles": "CS(=O)(=O)c1ccc(-c2cnc(N)c(C(=O)Nc3ccccc3)n2)cc1", "note": "[VE-821]", "values": [
      {"measurement": "replication and ssDNA gaps during stress", "setting": "[1]", "result": "promoted replication during stress, but with significant ssDNA gap induction"},
      {"measurement": "effect on PARPi sensitivity", "setting": "BR5-R1 cells", "result": "re-established PARPi sensitivity"},
      {"measurement": "clonogenic survival", "setting": "[2]", "result": "greater clonogenic survival"},
      {"measurement": "response in colony formation assay", "setting": "[2]", "result": "resistance"}
    ]},
    {"smiles": "CC[C@@]1(O)C(=O)OCc2c1cc1n(c2=O)Cc2cc3ccccc3nc2-1", "note": "[CPT, camptothecin]", "values": [
      {"measurement": "sensitivity in cell survival assay", "setting": "RPE1 cells [3]; FANCJ K/O RPE1 cells, CPT", "result": "sensitive"}
    ]},
    {"smiles": "C=CCn1c(=O)c2cnc(Nc3ccc(N4CCN(C)CC4)cc3)nc2n1-c1cccc(C(C)(C)O)n1", "note": "[MK1775]", "values": [
      {"measurement": "clonogenic survival", "setting": "[2]", "result": "greater clonogenic survival"},
      {"measurement": "response in colony formation assay", "setting": "[2]", "result": "resistance"}
    ]},
    {"smiles": "N.N.[Cl][Pt][Cl]", "note": "[cisplatin]", "values": [
      {"measurement": "sensitivity in cell survival assay", "setting": "RPE1 cells [3]; BRCA1 K/O RPE1 cells, cisplatin", "result": "sensitive"},
      {"measurement": "sensitivity in cell survival assay", "setting": "RPE1 cells [3]; FANCJ K/O RPE1 cells, cisplatin", "result": "sensitive"},
      {"measurement": "cisplatin response", "setting": "PEO1 and C4-2 cells; C4-2 cells, BRCA2 proficient PEO1 reversion line", "result": "resistant"},
      {"measurement": "cisplatin response", "setting": "PEO1 and C4-2 cells; PEO1 cells, truncated BRCA2", "result": "hypersensitive"}
    ]},
    {"smiles": "O=C(c1cc(Cc2n[nH]c(=O)c3ccccc23)ccc1F)N1CCN(C(=O)C2CC2)CC1", "note": "[olaparib]", "values": [
      {"measurement": "sensitivity at therapeutic range", "setting": "RPE1 cells [3]; BRCA1 K/O RPE cells", "result": "sensitive"},
      {"measurement": "sensitivity at therapeutic range", "setting": "RPE1 cells [3]; control and FANCJ K/O cells", "result": "not sensitive"},
      {"measurement": "sensitivity in cell survival assay", "setting": "RPE1 cells [3]; BRCA1 K/O RPE1 cells, olaparib", "result": "sensitive"},
      {"measurement": "sensitivity in cell survival assay", "setting": "RPE1 cells [3]; FANCJ K/O RPE1 cells, olaparib", "result": "not sensitize"},
      {"measurement": "PARPi response", "setting": "[4]; BRCA1/2 deficient", "result": "sensitive"},
      {"measurement": "PARPi response", "setting": "[4]; BRCA1/2 proficient", "result": "resistant"},
      {"measurement": "PARPi response", "setting": "[4]; BRCA1 and 53BP1 deficient", "result": "resistant"},
      {"measurement": "PARPi response", "setting": "[4]; BRCA2 S3291A mutant", "result": "resistant"},
      {"measurement": "PARPi response", "setting": "[4]; BRCA2 and CHD4 deficient", "result": "resistant"},
      {"measurement": "PARPi response", "setting": "[4]; FANCJ deficient", "result": "resistant"},
      {"measurement": "PARPi response", "setting": "[4]; RAD51 T131P mutant", "result": "sensitive"},
      {"measurement": "PARPi response", "setting": "[4]; RAD51 T131P mutant and RADX deficient", "result": "sensitive"},
      {"measurement": "replication tract length", "setting": "RPE1 cells [5]", "result": "lengthens replication tracts"}
    ]},
    {"smiles": "NC(=O)NO", "note": "[HU, hydroxyurea]", "values": [
      {"measurement": "frequency of fork reversal events", "setting": "U2OS cells; FANCJ S990A U2OS cells", "result": "~11", "unit": "%"},
      {"measurement": "fraction of reversed replication forks", "setting": "U2OS cells; FANCJ WT U2OS cells", "result": "~26", "unit": "%"},
      {"measurement": "fraction of reversed replication forks", "setting": "U2OS cells; empty vector U2OS cells", "result": 23, "unit": "%"}
    ]}
  ]
}
